Experiments:
[1] = system: HeLa cells; test: quantification of apoptotic morphology (pyknosis/karyorrhexis); assay type: cell-based, human; conditions: single-agent treatment, 48 h (1 40 μM; CHIR-124 500 nM)
Experimental: With this in mind, and considering the strong Chk1 activation in response to 1, HeLa cervical cancer cells, which are […][44], were exposed to a combination of 1 plus the Chk1 inhibitor CHIR-124[45] and the impact of co-treatment upon cell viability determined. A non-cytotoxic dose of 500 nM CHIR-124 was used and results were compared to single-agent treatment. […] Minimal enhancement of the anti-proliferative effect of 2 by CHIR-124 was observed (Fig. S15b), in agreement with 2 operating via a Chk1-independent mechanism.
Figure 5 Concurrent treatment of [Ru(dppz)2(PIP)]^2+ plus the Chk1 inhibitor CHIR-124 potentiates synergistic apoptosis in cancer cells. (a) Viability of HeLa (cervical cancer) or hSAEC1-KT (normal epithelial) cells after incubation with 1 in the absence or presence of Chk1 inhibitor CHIR-124 (500 nM) for 48 h constant exposure. (b) Morphological evidence for apoptosis (pyknosis/karyorrhexis, arrows) in HeLa cells treated with 40 μM 1 plus CHIR-124 for 48 h. Scale bars = 20 μm. (c) Quantification of apoptotic cells for experimental conditions as shown in (b). Equivalent results for 2 (40 μM, 48 h) included. Data mean of two independent experiments +/− SD. […] (f) Quantification of γH2AX foci from cells treated as in (e). […] Minimum of 150 cells counted per experiment. […]

[2] = system: HeLa cells; test: cell-cycle analysis by PI flow cytometry; assay type: cell-based, human; conditions: cisplatin 10 μM, 24 h (Fig. 4c)
Experimental: Figure 4 [Ru(dppz)2(PIP)]^2+ induces Chk1 checkpoint kinase activation and G1-S cell-cycle arrest. […] See SI for densitometry. (c) Cell-cycle distributions of HeLa cells incubated with DMSO (0.2%), 1 or 2 at the stated concentrations and time. DNA content was quantified using propidium iodide (PI) and analysed by flow cytometry. […] Data mean of three independent experiments +/− SD. […] They are copied as bare numbers, left to right. / The gate numbers in panel c are very small, so 3, 5, 6, 8 and 9 cannot be told apart with certainty. All the values below are best readings. / DMSO: 0.86, 57.4, 22.5, 16.8 uncertain / 1 (40 μM, 3 h): 0.46, 72.7, 13.5, 8.77 uncertain / 1 (40 μM, 8 h): 1.69, 73.2, 15.3, 3.6 uncertain / 1 (40 μM, 24 h): 1.2, 72.9, 15.8, 6.47 uncertain. […] 32.4 is partly overlapped by the peak line.
Cells were washed with PBS and detached using Trypsin. After centrifugation at 1000 rpm for 5 min, cells were fixed in cold 70% ethanol for 30 mins, centrifuged and re-suspended in PBS. Samples were stained using 10 μg/ml propidium iodide (PI) and 200 μg/ml RNAase A for 30 mins before FACS analysis using a Biosciences LSRII Flow Cytometer. A minimum of 10,000 cells were counted for each sample and data were processed using FloJo software. […]

[3] = system: primary human foreskin fibroblasts (HFF); test: MTT proliferation assay, HFF; assay type: cell-based; conditions: 24 h proliferation assay
Experimental: (§1) (LC3 = Microtubule-associated protein light chain 3) (Fig. 2b, bottom).
(§2) Cells were seeded in 96 well plates at 20,000 cells/well, allowed to proliferate for 24 h before treatment as described in the main text. 0.5 mg ml^−1 MTT (thiazolyl blue tetrazolium bromide) dissolved in serum-free media was added for 60 minutes and the formazan product eluted using acidified isopropanol. The absorbance at 540 nm was quantified by plate reader (reference wavelength 650 nm). The metabolic activity of the cell population was determined as a percentage of a negative (solvent) control.

[4] = system: HeLa cervical cancer cells; test: MTT proliferation assay, HeLa; assay type: cell-based, human; conditions: 24 h proliferation assay
Experimental: as §1, §2

[5] = system: MCF7 breast cancer cells; test: MTT proliferation assay, MCF7; assay type: cell-based, human; conditions: 24 h proliferation assay
Experimental: as §1, §2

Compound	morphological evidence of apoptosis (pyknosis/karyorrhexis) [1] [%]	cells with sub-G1 DNA content [2]	IC50 [3] [µM]	IC50 [4] [µM]	IC50 [5] [µM]	IC50 ([3]; Homo sapiens, Fibroblast, 24 h) [µM]	IC50 ([4]; Homo sapiens, HeLa, 24 h) [µM]	IC50 ([5]; Homo sapiens, MCF7, 24 h) [µM]
O=c1[nH]c2ccc(Cl)cc2c(N[C@@H]2CN3CCC2CC3)c1-c1nc2ccccc2[nH]1 [CHIR-124, reference compound]	< 5	–	–	–	–	–	–	–
N.N.[Cl][Pt][Cl] [Cisplatin, cis-diamminedichloroplatinum(II)]	–	~ 30%	> 100	9	11	–	–	–
O=C1c2c(O)ccc(O)c2C(=O)c2c(NCCNCCO)ccc(NCCNCCO)c21 [MX, mitoxantrone]	–	–	4.2	3	3.6	< 5	< 5	< 5
